Like-named read-outs stand apart in the source and are kept apart here.
What was measured:
[1] = system: DHFR-overexpressing strain of Mtb (DHFR-oe); settings: ref Nixon et al.[15]; cited from earlier work
[2] = system: DHFR-overexpressing strain of Mtb (DHFR-oe); format: cell-based, Mycobacterium tuberculosis

SMILES	MIC90 DHFR-oe [1]	MIC90 DHFR-oe [2]
COc1cc(NCc2ccc3nc(N)nc(N)c3c2C)cc(OC)c1OC [Trimetrexate]	>100 µM	
N#Cc1ccc(Cn2ccc3c4c(N)nc(N)nc4ccc32)cc1 [PQD-1]		>2 µM
CC1(C)N=C(N)N=C(N)N1OCCCOc1cc(Cl)c(Cl)cc1Cl [WR99210]		15 to 30 µM
